Measurements: patent US20230257393A1, “MACROMOLECULE-SUPPORTED THIENOAZEPINE COMPOUNDS, AND USES THEREOF” (BOLT BIOTHERAPEUTICS, INC., priority 2020, published 2023)
Like-named read-outs stand apart in the source and are kept apart here.

Key:
human TLR7 = target: T1, human TLR7 (Homo sapiens, UniProt Q9NYK1); experiment: HEK Reporter Assay, HEK293 NFKB reporter cells expressing human TLR7; format: cell-based; settings: read-out: HEK293 hTLR7 EC50
T1 construct: host or cells: HEK293 reporter cells
T1 sequence (Q9NYK1 27-1049): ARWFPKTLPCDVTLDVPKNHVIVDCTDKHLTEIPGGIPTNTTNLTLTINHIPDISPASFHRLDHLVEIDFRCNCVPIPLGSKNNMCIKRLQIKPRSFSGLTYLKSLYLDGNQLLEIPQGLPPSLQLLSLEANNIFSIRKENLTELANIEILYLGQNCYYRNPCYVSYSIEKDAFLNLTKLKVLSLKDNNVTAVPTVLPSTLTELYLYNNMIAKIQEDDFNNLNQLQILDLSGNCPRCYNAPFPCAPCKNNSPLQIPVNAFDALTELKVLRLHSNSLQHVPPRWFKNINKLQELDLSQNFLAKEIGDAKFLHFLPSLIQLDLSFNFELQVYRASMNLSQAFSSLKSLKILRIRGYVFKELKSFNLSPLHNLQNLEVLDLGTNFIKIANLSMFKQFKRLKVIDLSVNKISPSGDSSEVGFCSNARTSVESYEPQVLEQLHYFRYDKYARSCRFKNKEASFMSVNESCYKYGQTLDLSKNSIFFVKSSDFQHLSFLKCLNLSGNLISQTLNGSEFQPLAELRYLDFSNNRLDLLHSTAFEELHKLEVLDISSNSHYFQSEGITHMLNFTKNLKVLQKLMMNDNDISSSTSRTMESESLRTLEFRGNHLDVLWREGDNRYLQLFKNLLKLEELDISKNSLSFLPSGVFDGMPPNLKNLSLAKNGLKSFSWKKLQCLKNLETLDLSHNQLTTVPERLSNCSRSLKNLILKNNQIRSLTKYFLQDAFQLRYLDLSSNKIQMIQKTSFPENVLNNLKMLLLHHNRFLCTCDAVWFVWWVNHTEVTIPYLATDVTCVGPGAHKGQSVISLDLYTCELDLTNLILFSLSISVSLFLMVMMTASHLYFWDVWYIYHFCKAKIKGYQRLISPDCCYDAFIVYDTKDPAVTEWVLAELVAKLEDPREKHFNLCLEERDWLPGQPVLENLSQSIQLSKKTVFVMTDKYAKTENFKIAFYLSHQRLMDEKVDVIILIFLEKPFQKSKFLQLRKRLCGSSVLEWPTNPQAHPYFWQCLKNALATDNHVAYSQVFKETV
Description: (§1) Each compound was synthesized, purified, and characterized by mass spectrometry and shown to have the mass indicated. Additional experimental procedures are found in the Examples. Activity against HEK293 NFKB reporter cells expressing human TLR7 or human TLR8 was measured according to Example 202.
(§2) HEK293 reporter cells expressing human TLR7 or human TLR8 were purchased from Invivogen and vendor protocols were followed for cellular propagation and experimentation. Briefly, cells were grown to 80-85% confluence at 5% CO2 in DMEM supplemented with 10% FBS, Zeocin, and Blasticidin. Cells were then seeded in 96-well flat plates at 4×10^4 cells/well with substrate containing HEK detection medium and immunostimulatory molecules. Activity was measured using a plate reader at 620-655 nm wavelength.

human TLR8 = target: T2, human TLR8 (Homo sapiens, UniProt Q9NR97); experiment: HEK Reporter Assay, HEK293 NFKB reporter cells expressing human TLR8; format: cell-based; settings: read-out: HEK293 hTLR8 EC50
T2 construct: host or cells: HEK293 reporter cells
T2 sequence (Q9NR97 27-1041): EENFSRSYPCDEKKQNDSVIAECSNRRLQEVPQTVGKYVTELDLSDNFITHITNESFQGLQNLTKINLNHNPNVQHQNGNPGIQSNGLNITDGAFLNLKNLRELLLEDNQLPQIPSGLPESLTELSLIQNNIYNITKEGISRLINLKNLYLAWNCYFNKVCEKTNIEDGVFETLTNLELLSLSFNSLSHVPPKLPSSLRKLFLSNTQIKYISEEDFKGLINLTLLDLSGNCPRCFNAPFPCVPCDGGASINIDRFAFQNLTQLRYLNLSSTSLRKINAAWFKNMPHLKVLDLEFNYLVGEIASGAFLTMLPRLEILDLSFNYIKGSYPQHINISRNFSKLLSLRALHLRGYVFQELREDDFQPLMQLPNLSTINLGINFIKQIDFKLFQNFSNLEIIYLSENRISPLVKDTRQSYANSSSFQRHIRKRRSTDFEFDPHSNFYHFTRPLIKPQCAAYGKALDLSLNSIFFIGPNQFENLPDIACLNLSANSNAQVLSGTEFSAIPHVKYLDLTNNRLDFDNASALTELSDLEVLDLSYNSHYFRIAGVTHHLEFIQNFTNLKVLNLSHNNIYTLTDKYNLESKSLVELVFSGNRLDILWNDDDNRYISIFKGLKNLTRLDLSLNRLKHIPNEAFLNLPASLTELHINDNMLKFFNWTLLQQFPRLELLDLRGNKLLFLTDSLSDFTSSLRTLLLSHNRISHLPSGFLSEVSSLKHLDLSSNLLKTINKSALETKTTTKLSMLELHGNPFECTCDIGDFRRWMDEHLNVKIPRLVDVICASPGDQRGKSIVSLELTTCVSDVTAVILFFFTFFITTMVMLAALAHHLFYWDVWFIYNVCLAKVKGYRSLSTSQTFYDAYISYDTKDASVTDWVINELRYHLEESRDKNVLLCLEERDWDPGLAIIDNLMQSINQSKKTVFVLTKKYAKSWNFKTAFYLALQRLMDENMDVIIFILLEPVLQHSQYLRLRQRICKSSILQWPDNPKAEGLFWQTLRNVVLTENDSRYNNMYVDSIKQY
Description: as §1, §2

Compound | EC50 (human TLR7; Table 1c) [µM] | EC50 (human TLR8; Table 1c) [µM] | also measured
CCCN(CCCNC(=O)OC(C)(C)C)C(=O)C1=Cc2sc(Br)cc2N=C(N)C1 [TAZ-9, tert-butyl N-[3-[(5-amino-2-bromo-6H-thieno[3,2-b]azepine-7-carbonyl)-propyl-amino]propyl]carbamate] |  |  | EC50 (human TLR7; Table 1a): > 9 µM; EC50 (human TLR8; Table 1a): > 9 µM
CCCN(CC#CCNC(=O)OC(C)(C)C)C(=O)C1=Cc2sc(Br)cc2N=C(N)C1 [TAZ-10, tert-butyl N-[4-[(5-amino-2-bromo-6H-thieno[3,2-b]azepine-7-carbonyl)-propyl-amino]but-2-ynyl]carbamate] |  |  | EC50 (human TLR8; Table 1a): > 9 µM
CCCN(OCC)C(=O)C1=Cc2sc(C#CC3CN(C(=O)OC(C)(C)C)C3)cc2N=C(N)C1 [TAZ-187] | ≥ 9 |  | 
CCCN(OCC)C(=O)C1=Cc2sc(CN3CC(CN)C3)cc2N=C(N)C1 [TAZ-211] | ≥ 9 |  | 
CCCN(CC1CC1)C(=O)C1=Cc2sc(CCCCCNC(=O)OC(C)(C)C)cc2N=C(N)C1 [TAZ-125] |  | ≥ 9 | 
CCCN(CC#CCNC(=O)OC(C)(C)C)C(=O)C1=Cc2sccc2N=C(N)C1 [TAZ-16, tert-butyl N-[4-[(5-amino-6H-thieno[3,2-b]azepine-7-carbonyl)-propyl-amino]but-2-ynyl]carbamate] |  |  | EC50 (human TLR7; Table 1a): > 9 µM
CCCN(CCCNC(=O)OC1CCC1)C(=O)C1=Cc2sc(CC3CCNCC3)cc2N=C(N)C1 [TAZ-185, cyclobutyl N-[3-[[5-amino-2-(4-piperidylmethyl)-6H-thieno[3,2-b]azepine-7-carbonyl]-propyl-amino]propyl]carbamate] |  | ≥ 9 | 
CCCN(CCC)C(=O)C1=Cc2sc(CCCCCN)cc2N=C(N)C1 [TAZ-14, 5-amino-2-(5-aminopentyl)-N,N-dipropyl-6H-thieno [3,2-b]azepine-7-carboxamide] |  |  | EC50 (human TLR7; Table 1a): > 9 µM
CCCN(Cc1ccc(CN)cc1)C(=O)C1=Cc2sccc2N=C(N)C1 [TAZ-30, 5-amino-N-(4-(aminomethyl)benzyl)-N-propyl-6H-thieno[3,2-b]azepine-7-carboxamide] |  |  | EC50 (human TLR7; Table 1a): > 9 µM
CCCN(OCC)C(=O)C1=Cc2sc(CN3C[C@H]4CN(C(=O)OC(C)(C)C)C[C@@H]4C3)cc2N=C(N)C1 [TAZ-248] | ≥ 9 |  | 
CCCN(CCCNC(=O)OC1CCC1)C(=O)C1=Cc2sc(CC3CNC3)cc2N=C(N)C1 [TAZ-181] |  | ≥ 9 | 
CCCN(CC#CCN)C(=O)C1=Cc2sccc2N=C(N)C1 [TAZ-17, 5-amino-N-(4-aminobut-2-ynyl)-N-propyl-6H-thieno[3,2-b]azepine-7-carboxamide] |  |  | EC50 (human TLR7; Table 1a): > 9 µM
CCCN(CCC)C(=O)C1=Cc2scc(C)c2N=C(N)C1 [TAZ-168] | ≥ 9 |  | 
CCCN(CCCNC(=O)OC1CCC1)C(=O)C1=Cc2sc(CCC3CNC3)cc2N=C(N)C1 [TAZ-197] |  | ≥ 9 | 
CCCN(C[C@H]1CC[C@@H](CNC(=O)OC(C)(C)C)CC1)C(=O)C1=Cc2sccc2N=C(N)C1 [TAZ-119] |  | ≥ 9 | 
CCCN(OCC)C(=O)C1=Cc2sc(CN3Cc4ccc(NC(=O)CCN)cc4C3)cc2N=C(N)C1 [TAZ-201] | ≥ 9 |  | 
CCCN(CCCNC(=O)OC1CCC1)C(=O)C1=Cc2sc(CNC(=O)Cc3ccccc3)cc2N=C(N)C1 [TAZ-204] |  | 2.25 | 
CCCN(C(=O)C1=Cc2sc(CCCCCNC(=O)OC(C)(C)C)cc2N=C(N)C1)C1CC1 [TAZ-123] |  | ≥ 9 | 
CCCN(Cc1ccc(CNC)cc1)C(=O)C1=Cc2sc(CCCCCN(C)C)cc2N=C(N)C1 [TAZ-65, 5-amino-2-[5-(dimethylamino)pentyl]-N-[[4-(methylaminomethyl)phenyl]methyl]-N-propyl-6H-thieno[3,2-b]azepine-7-carboxamide] |  |  | EC50 (human TLR7; Table 1b): > 9 µM
CCCN(C[C@H]1C[C@H](CN)C1)C(=O)C1=Cc2sccc2N=C(N)C1 [TAZ-69] |  |  | EC50 (human TLR7; Table 1b): > 9 µM

Compound | EC50 (human TLR7; Table 1c) [µM] | EC50 (human TLR8; Table 1c) [µM] | also measured
CCCN(CCCNC(=O)OC1CCC1)C(=O)C1=Cc2sc(CN3CCNCC3)cc2N=C(N)C1 [TAZ-169] |  | ≥ 9 | 
CCCN(CCC)C(=O)C1=Cc2sc(CNC(=O)CN)cc2N=C(N)C1 [TAZ-92] |  |  | EC50 (human TLR7; Table 1b): > 9 µM
CCCN(OCC)C(=O)C1=Cc2sc(CN3C[C@@H]4CN(C(=O)OC(C)(C)C)C[C@@H]4C3)cc2N=C(N)C1 [TAZ-242] | ≥ 9 |  | 
CCCN(OCC)C(=O)C1=Cc2sc(CC3CCN(C(=O)OC(C)(C)C)CC3)cc2N=C(N)C1 [TAZ-179] | ≥ 9 |  | 
CCCN(Cc1cnc(CN(C)C)c(C(F)(F)F)c1)C(=O)C1=Cc2sc(CCCCCN)cc2N=C(N)C1 [TAZ-127] | ≥ 9 |  | 
CCCN(OCC)C(=O)C1=Cc2sc(CN3C[C@H]4CNC[C@H]4C3)cc2N=C(N)C1 [TAZ-247] | ≥ 9 |  | 
CCCN(C[C@H]1CC[C@@H](CN)CC1)C(=O)C1=Cc2sccc2N=C(N)C1 [TAZ-118] | ≥ 9 |  | 
CCCN(OCC)C(=O)C1=Cc2sc(CN3CCN(c4cccc(C(=O)OC(C)(C)C)c4)CC3)cc2N=C(N)C1 [TAZ-216] | ≥ 9 |  | 
CCCN(CCCNC(=O)OC1CCC1)C(=O)C1=Cc2sc(CN3CCN(c4ccc(C(=O)OC)cc4)CC3)cc2N=C(N)C1 [TAZ-180] |  | ≥ 9 | 
CCCN(Cc1ncco1)C(=O)C1=Cc2sc(CC3CNC3)cc2N=C(N)C1 [TAZ-256] | ≥ 9 |  | 
CCCN(OCC)C(=O)C1=Cc2sc(CN3CC4(CCN4Cc4ccccc4)C3)cc2N=C(N)C1 [TAZ-246] | ≥ 9 |  | 
CCCN(CCC)C(=O)C1=Cc2sc(COCCN)cc2N=C(N)C1 [TAZ-81] |  |  | EC50 (human TLR7; Table 1b): > 9 µM
CCCN(Cc1ccc(CN(C)C)cc1C(F)(F)F)C(=O)C1=Cc2sc(CCCCCNC(=O)OC(C)(C)C)cc2N=C(N)C1 [TAZ-143] |  | ≥ 9 | 
CCCN(OCC)C(=O)C1=Cc2sc(C#CC3CCN(C(=O)OC(C)(C)C)CC3)cc2N=C(N)C1 [TAZ-173] |  | ≥ 9 | 
CCCN(OCC)C(=O)C1=Cc2sc(C#CC3(O)CN(C(=O)OC(C)(C)C)C3)cc2N=C(N)C1 [TAZ-188] | ≥ 9 |  | 
CCCN(OCC)C(=O)C1=Cc2sc(CN3CCC(N)CC3)cc2N=C(N)C1 [TAZ-243] | ≥ 9 |  | 
CCCN(CCCNC(=O)OC1CCC1)C(=O)C1=Cc2sc(C#CC3CCN(C(=O)OC(C)(C)C)CC3)cc2N=C(N)C1 [TAZ-165] | ≥ 9 |  | 
CCCN(CCCNC(=O)C(C)(C)C)C(=O)C1=Cc2sc(CCCCCN)cc2N=C(N)C1 [TAZ-142] |  | ≥ 9 | 
CCCN(CCC)C(=O)C1=Cc2sccc2N=C(N)C1 [TAZ-2, 5-amino-N,N-dipropyl-6H-thieno[3,2-b]azepine-7-carboxamide] |  |  | EC50 (human TLR7; Table 1a): > 9 µM
CCCN(CCCNC(=O)CC(C)(C)C)C(=O)C1=Cc2sc(CN3CCNCC3)cc2N=C(N)C1 [TAZ-139] |  | ≥ 9 | 
